Experimental data published in ChEMBL document CHEMBL1201862, “PubChem BioAssay data set” (2004).
The source made the active and inactive calls.

How the values were obtained:
Type in all cases: functional
[1] = biological target: Vascular endothelial growth factor receptor 2 (Homo sapiens, UniProt P35968)
[2] = biological target: Receptor-type tyrosine-protein kinase FLT3 (Homo sapiens, UniProt P36888);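 note: FLT3 was tested as one member of a kinome-wide kinase panel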
[3] = biological target: Cyclin-dependent kinase 9 (Homo sapiens, UniProt P50750);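 note: value from the CDK9 entry of a kinome-spanning kinase panel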
Chain of Cyclin-dependent kinase 9 (P50750 whole entry): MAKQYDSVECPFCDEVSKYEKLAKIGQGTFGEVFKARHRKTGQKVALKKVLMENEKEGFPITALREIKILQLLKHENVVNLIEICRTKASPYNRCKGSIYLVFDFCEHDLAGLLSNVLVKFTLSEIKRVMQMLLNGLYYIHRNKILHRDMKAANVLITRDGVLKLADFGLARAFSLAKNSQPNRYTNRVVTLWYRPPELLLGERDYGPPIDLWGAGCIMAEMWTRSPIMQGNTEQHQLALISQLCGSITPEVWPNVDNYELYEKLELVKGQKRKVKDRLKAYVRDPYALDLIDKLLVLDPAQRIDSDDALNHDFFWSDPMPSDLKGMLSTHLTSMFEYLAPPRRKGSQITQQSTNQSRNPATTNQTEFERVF

[4] = biological target: Mitogen-activated protein kinase kinase kinase kinase 5 (Homo sapiens, UniProt Q9Y4K4);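 note: measured as one member of a kinome-spanning kinase panel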
Chain of Mitogen-activated protein kinase kinase kinase kinase 5 (Q9Y4K4 whole entry): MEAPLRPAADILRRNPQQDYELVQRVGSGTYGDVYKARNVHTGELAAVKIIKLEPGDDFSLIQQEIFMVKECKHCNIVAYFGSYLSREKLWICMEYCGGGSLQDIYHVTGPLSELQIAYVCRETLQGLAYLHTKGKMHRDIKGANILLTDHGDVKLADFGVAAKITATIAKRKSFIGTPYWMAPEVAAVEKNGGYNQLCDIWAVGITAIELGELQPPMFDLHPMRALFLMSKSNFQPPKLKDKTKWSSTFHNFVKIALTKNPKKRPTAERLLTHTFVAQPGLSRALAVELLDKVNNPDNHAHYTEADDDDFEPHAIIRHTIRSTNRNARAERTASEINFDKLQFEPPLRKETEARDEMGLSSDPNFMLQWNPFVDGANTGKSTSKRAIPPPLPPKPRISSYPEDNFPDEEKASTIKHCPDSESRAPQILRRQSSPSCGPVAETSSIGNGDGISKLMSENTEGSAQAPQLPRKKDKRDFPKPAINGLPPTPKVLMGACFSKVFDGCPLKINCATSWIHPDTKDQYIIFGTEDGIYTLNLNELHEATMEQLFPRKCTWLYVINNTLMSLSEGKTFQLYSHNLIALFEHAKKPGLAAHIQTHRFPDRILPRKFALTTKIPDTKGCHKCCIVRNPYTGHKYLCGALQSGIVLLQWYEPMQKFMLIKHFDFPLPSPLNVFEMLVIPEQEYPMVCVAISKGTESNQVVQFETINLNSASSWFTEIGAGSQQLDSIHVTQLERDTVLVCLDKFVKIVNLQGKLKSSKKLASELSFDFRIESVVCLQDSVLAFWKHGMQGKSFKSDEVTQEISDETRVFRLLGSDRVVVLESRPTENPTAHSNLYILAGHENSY

[5] = biological target: Glycogen synthase kinase-3 beta (Homo sapiens, UniProt P49841);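 note: value comes from a broad kinome profiling panel, with GSK3B as the panel member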
Activated CDC42 kinase 1 = Activated CDC42 kinase 1 (Homo sapiens, UniProt Q07912); experiment: Navigating the Kinome. Panel member name: ACK1
Chain of Activated CDC42 kinase 1 (Q07912 whole entry): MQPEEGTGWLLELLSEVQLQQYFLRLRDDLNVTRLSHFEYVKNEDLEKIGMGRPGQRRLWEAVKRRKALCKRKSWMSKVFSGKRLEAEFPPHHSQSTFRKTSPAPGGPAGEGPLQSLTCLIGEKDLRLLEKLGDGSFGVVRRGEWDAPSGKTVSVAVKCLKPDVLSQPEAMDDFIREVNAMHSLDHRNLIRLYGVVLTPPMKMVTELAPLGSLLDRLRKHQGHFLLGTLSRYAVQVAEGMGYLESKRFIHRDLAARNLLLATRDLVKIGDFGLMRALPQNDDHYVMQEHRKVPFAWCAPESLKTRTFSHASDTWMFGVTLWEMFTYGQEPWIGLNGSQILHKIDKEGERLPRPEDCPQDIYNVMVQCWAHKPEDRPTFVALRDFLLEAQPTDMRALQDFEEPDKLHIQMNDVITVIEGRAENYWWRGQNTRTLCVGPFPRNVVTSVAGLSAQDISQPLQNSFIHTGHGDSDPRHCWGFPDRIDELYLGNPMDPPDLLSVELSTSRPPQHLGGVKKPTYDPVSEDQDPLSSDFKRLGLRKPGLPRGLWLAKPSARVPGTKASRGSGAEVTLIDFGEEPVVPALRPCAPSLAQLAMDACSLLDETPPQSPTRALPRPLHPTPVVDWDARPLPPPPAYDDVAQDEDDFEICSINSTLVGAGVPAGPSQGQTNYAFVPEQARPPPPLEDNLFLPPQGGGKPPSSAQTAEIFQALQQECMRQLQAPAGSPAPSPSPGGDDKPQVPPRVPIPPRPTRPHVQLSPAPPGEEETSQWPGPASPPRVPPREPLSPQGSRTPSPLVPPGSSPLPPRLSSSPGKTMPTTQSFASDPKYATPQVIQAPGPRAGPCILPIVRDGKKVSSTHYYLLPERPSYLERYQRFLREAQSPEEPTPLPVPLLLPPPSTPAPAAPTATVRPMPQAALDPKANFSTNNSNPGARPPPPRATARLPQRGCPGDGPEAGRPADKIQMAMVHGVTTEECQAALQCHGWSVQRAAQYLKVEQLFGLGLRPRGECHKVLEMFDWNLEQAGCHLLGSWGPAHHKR

[6] = biological target: Calcium/calmodulin-dependent protein kinase type II subunit delta (Homo sapiens, UniProt Q13557)
Activin receptor type-1 = Activin receptor type-1 (Homo sapiens, UniProt Q04771); experiment: Navigating the Kinome. Panel member name: ACVR1
Chain of Activin receptor type-1 (Q04771 whole entry): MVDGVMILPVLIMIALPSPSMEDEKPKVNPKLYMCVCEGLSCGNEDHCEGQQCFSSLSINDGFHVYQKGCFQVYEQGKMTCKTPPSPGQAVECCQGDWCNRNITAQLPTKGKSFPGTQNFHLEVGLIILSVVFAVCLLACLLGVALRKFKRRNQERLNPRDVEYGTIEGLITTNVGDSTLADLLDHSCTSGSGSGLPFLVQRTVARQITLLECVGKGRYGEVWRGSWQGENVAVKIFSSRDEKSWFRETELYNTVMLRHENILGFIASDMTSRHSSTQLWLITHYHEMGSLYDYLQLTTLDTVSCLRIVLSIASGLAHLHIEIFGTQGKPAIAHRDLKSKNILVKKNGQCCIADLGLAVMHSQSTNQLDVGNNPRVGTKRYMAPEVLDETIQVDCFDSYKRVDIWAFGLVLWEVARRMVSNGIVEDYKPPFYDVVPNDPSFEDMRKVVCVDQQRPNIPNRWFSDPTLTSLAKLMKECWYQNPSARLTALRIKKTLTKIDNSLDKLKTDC

[7] = biological target: Hepatocyte growth factor receptor (Homo sapiens, UniProt P08581);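 note: kinase panel profiling across the kinome, with MET as the panel member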
[8] = biological target: Vascular endothelial growth factor receptor 1 (Homo sapiens, UniProt P17948);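 note: measured within a kinome-wide profiling panel, FLT1 as the panel member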
[9] = biological target: Fibroblast growth factor receptor 1 (Homo sapiens, UniProt P11362)
[10] = biological target: 5'-AMP-activated protein kinase catalytic subunit alpha-1 (Homo sapiens, UniProt Q13131)
[11] = biological target: Platelet-derived growth factor receptor alpha (Homo sapiens, UniProt P16234); experiment: Navigating the Kinome. Panel member name: PDGFRA
Chain of Platelet-derived growth factor receptor alpha (P16234 whole entry): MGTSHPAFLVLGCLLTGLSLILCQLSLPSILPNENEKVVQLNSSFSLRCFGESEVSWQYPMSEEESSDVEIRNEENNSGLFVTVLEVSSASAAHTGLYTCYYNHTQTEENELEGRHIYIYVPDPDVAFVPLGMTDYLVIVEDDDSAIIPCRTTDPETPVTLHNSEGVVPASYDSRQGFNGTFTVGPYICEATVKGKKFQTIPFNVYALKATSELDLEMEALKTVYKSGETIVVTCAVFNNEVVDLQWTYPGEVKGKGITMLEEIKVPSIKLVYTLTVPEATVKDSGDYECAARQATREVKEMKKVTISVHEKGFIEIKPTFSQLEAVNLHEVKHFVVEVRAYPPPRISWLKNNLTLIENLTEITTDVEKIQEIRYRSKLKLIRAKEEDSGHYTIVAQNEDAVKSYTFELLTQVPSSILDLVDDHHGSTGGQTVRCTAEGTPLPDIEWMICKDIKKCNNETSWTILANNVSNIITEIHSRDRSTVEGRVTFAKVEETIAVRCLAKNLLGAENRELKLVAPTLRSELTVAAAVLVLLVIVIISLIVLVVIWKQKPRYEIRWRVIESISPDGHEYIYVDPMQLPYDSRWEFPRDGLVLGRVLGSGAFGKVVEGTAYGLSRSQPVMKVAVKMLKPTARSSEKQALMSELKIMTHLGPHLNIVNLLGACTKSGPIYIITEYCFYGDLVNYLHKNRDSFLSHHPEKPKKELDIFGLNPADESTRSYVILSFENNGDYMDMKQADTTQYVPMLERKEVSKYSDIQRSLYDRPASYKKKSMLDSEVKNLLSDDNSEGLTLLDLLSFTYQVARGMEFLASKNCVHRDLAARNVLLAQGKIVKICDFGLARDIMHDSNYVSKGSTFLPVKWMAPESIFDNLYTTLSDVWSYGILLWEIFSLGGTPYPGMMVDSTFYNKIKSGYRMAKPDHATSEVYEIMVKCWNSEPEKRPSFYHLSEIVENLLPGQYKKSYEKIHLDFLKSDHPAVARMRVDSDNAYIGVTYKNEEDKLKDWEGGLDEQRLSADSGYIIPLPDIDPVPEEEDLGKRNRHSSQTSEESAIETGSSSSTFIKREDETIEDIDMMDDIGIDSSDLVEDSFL

[12] = biological target: Dual specificity mitogen-activated protein kinase kinase 2 (Homo sapiens, UniProt P36507); experiment: Navigating the Kinome. Panel member name: MAP2K2
[13] = biological target: Homeodomain-interacting protein kinase 2 (Homo sapiens, UniProt Q9H2X6);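 note: measured within a kinome-wide kinase profiling panel, HIPK2 being one panel member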
[14] = biological target: Protein kinase C theta type (Homo sapiens, UniProt Q04759); experiment: Navigating the Kinome. Panel member name: PRKCQ
[15] = biological target: T1, Tyrosine-protein kinase JAK3 (Homo sapiens, UniProt P52333)
T1 sequence (P52333 whole entry): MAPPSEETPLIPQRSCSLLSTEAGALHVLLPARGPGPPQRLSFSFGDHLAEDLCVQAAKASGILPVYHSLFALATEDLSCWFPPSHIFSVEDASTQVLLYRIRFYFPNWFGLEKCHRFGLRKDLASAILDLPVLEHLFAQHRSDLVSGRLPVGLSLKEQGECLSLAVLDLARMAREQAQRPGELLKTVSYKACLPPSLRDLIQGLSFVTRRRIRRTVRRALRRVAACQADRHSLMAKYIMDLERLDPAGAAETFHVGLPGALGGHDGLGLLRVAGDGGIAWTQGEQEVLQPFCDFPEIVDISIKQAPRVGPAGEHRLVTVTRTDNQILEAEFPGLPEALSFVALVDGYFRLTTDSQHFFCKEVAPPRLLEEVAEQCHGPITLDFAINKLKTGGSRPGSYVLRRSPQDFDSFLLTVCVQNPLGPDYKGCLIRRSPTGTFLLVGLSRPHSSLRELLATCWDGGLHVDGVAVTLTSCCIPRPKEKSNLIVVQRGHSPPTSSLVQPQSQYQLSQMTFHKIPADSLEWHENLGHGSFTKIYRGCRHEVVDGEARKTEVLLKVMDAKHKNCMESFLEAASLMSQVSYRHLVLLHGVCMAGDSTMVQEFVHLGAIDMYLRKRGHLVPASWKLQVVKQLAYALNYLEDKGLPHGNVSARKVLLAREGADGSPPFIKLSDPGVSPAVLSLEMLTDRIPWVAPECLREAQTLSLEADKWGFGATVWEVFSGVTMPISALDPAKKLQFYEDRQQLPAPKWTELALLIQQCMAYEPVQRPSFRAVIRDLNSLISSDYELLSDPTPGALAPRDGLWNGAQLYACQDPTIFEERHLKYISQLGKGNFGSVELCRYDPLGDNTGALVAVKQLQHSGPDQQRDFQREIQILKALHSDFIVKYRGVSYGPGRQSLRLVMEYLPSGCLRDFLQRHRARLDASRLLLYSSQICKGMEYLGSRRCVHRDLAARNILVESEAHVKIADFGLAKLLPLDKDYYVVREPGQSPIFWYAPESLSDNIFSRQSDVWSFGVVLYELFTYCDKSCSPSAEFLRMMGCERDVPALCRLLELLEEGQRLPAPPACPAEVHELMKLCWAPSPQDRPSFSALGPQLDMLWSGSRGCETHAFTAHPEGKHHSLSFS

[16] = biological target: Dual specificity tyrosine-phosphorylation-regulated kinase 1A (Homo sapiens, UniProt Q13627);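 note: measured against DYRK1A as one member of a broad kinome profiling panel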
[17] = biological target: cAMP-dependent protein kinase catalytic subunit alpha (Homo sapiens, UniProt P17612)
[18] = biological target: Serine/threonine-protein kinase Nek2 (Homo sapiens, UniProt P51955)
Chain of Serine/threonine-protein kinase Nek2 (P51955 whole entry): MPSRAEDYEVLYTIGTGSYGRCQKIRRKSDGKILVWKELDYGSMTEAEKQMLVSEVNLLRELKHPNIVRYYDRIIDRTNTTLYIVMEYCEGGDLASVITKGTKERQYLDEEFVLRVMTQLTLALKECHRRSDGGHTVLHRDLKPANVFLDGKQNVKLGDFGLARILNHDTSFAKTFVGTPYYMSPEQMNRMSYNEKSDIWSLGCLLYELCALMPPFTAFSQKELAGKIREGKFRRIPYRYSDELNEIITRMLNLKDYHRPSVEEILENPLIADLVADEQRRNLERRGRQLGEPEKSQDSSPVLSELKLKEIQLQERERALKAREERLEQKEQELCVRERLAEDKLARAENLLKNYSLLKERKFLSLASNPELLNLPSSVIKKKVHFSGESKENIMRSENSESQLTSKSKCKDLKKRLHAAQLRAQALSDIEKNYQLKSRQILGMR

[19] = biological target: Insulin-like growth factor 1 receptor (Homo sapiens, UniProt P08069); experiment: Navigating the Kinome. Panel member name: IGF1R
[20] = biological target: Mitogen-activated protein kinase 9 (Homo sapiens, UniProt P45984);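 note: value from a kinome panel profiling assay, MAPK9 panel entry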
[21] = biological target: Serine/threonine-protein kinase PAK 4 (Homo sapiens, UniProt O96013);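 note: value obtained within a kinome profiling panel in which PAK4 was one of the panel members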
Chain of Serine/threonine-protein kinase PAK 4 (O96013 whole entry): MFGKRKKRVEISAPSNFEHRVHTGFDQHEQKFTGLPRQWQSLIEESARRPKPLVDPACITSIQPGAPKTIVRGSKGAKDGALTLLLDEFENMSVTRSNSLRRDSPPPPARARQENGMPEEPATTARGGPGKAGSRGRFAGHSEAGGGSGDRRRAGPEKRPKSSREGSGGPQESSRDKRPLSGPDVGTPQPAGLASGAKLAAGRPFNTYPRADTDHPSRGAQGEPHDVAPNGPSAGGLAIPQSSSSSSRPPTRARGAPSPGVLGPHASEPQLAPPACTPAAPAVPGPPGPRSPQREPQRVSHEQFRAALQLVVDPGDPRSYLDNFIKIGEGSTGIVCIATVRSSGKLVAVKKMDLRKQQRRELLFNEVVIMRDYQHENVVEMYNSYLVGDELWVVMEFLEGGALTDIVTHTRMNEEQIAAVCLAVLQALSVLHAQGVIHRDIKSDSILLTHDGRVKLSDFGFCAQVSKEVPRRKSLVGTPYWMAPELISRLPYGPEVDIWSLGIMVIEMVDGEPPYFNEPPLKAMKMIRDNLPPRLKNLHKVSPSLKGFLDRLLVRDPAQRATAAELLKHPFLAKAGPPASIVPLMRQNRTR

[22] = biological target: BDNF/NT-3 growth factors receptor (Homo sapiens, UniProt Q16620);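 note: NTRK2 measured as one member of a broad kinome-wide kinase profiling panel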
Misshapen-like kinase 1 = Misshapen-like kinase 1 (Homo sapiens, UniProt Q8N4C8);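 note: kinome panel screen with MINK as the panel member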
[23] = biological target: High affinity nerve growth factor receptor (Homo sapiens, UniProt P04629);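 note: NTRK1 tested as one member of a kinome-wide profiling panel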
[24] = biological target: Inhibitor of nuclear factor kappa-B kinase subunit epsilon (Homo sapiens, UniProt Q14164); experiment: Navigating the Kinome. Panel member name: IKBKE
[25] = biological target: Macrophage-stimulating protein receptor (Homo sapiens, UniProt Q04912); experiment: Navigating the Kinome. Panel member name: MST1R
[26] = biological target: Maternal embryonic leucine zipper kinase (Homo sapiens, UniProt Q14680)
[27] = biological target: Tyrosine-protein kinase Lck (Homo sapiens, UniProt P06239);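 note: lck was assayed as one member of a kinase panel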
Focal adhesion kinase 1 = Focal adhesion kinase 1 (Homo sapiens, UniProt Q05397);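 note: measured as one member of a kinome panel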

Structure (SMILES)	Ki [1]	Ki [2]	Ki [3]	Ki [4]	Ki [5]	Ki (Activated CDC42 kinase 1)	Ki [6]	Ki (Activin receptor type-1)	Ki [7]	Ki [8]	Ki [9]	Ki [10]	Ki [11]	Ki [12]	Ki [13]	Ki [14]	Ki [15]	Ki [16]	Ki [17]	Ki [21]	also measured
CS(=O)(=O)N(Cc1ccc2[nH]c(=O)c3cccn3c2c1)C1CC1	> 5010 nM (inactive)	> 2510 nM (inactive)	> 1580 nM (inactive)	1580 nM (active)	> 2000 nM (inactive)	> 3980 nM (inactive)	251 nM (active)	> 3980 nM (inactive)	> 2510 nM (inactive)	> 2000 nM (inactive)	> 3980 nM (inactive)	> 1580 nM (inactive)	> 2510 nM (inactive)	> 3980 nM (inactive)	63.1 nM (active)	> 2510 nM (inactive)	> 2510 nM (inactive)	> 3980 nM (inactive)	> 3980 nM (inactive)	> 3160 nM (inactive)	Ki [18]: > 1580 nM (inactive); Ki [19]: > 1260 nM (inactive); Ki [20]: > 3980 nM (inactive); Ki [22]: > 3980 nM (inactive); Ki (Misshapen-like kinase 1): > 7940 nM (inactive); Ki [23]: > 1580 nM (inactive); Ki [24]: > 3160 nM (inactive); Ki [25]: > 3980 nM (inactive); Ki [26]: 200 nM (active)
CS(=O)(=O)Nc1ccc(Nc2ccc3[nH]nc(N)c3c2)cc1	–	–	–	–	–	–	–	–	–	–	–	–	–	–	–	–	> 5010 nM (inactive)	–	–	> 5010 nM (inactive)	Ki [27]: > 6310 nM (inactive); Ki (Focal adhesion kinase 1): > 6310 nM (inactive)
O=C(Nc1n[nH]c2ccc(-c3cn(Cc4ccccc4)nn3)cc12)c1cc(F)ccc1F	> 2510 nM (inactive)	> 2000 nM (inactive)	398 nM (active)	794 nM (active)	2 nM (active)	> 3980 nM (inactive)	> 3160 nM (inactive)	3980 nM (active)	> 2510 nM (inactive)	> 3980 nM (inactive)	> 3980 nM (inactive)	398 nM (active)	> 2510 nM (inactive)	> 3980 nM (inactive)	100 nM (active)	1580 nM (active)	> 5010 nM (inactive)	50.1 nM (active)	> 2510 nM (inactive)	3160 nM (active)	Ki [27]: > 6310 nM (inactive); Ki [18]: > 3160 nM (inactive); Ki [19]: > 2510 nM (inactive); Ki [20]: 1000 nM (active); Ki (Focal adhesion kinase 1): > 6310 nM (inactive); Ki [22]: > 3980 nM (inactive); Ki (Misshapen-like kinase 1): > 2510 nM (inactive); Ki [23]: > 3160 nM (inactive); Ki [24]: 1260 nM (active); Ki [25]: 2510 nM (active); Ki [26]: 398 nM (active)
